Measured values published in ChEMBL document CHEMBL1201862, “PubChem BioAssay data set” (2004).
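Grown in 96-well plates, cells were treated for 48 hours with each compound at five concentrations. Insufficient inhibition: endpoint recorded as highest concentration tested. GI50 marks 50% less growth.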 Calls of active or inactive are those of the source. Rule as the data show it: active = GI50 up to about 1.1 µM and inactive = higher.

What was measured:
Test in all cases: NCI-60 cell line screen, 48 h
MDA-MB-231 = system: MDA-MB-231
MDA-MB-435 = system: MDA-MB-435
NCI-H226 = system: NCI-H226
MOLT-4 = system: MOLT-4
BT-549 = system: BT-549
Malme-3M = system: Malme-3M
U-251 = system: U-251
SK-OV-3 = system: SK-OV-3
SK-MEL-28 = system: SK-MEL-28
ACHN = system: ACHN
SK-MEL-2 = system: SK-MEL-2
UO-31 = system: UO-31
HL-60 = system: HL-60
COLO 205 = system: COLO 205
RXF 393 = system: RXF 393
786-0 = system: 786-0
MCF7 = system: MCF7
SF-268 = system: SF-268
OVCAR-3 = system: OVCAR-3
UACC-257 = system: UACC-257

## COc1c(O)c(O)cc2c1-c1ccc(OC)c(=O)cc1C(NC(C)=O)CC2 (stereo not given)
MDA-MB-231
  GI50: 4.94 µM (inactive)
MDA-MB-435
  GI50: 1.6 µM (inactive)
NCI-H226
  GI50: 21 µM (inactive)
MOLT-4
  GI50: 6.24 µM (inactive)
BT-549
  GI50: 2.22 µM (inactive)
Malme-3M
  GI50: 5.7 µM (inactive)
U-251
  GI50: 4.03 µM (inactive)
SK-OV-3
  GI50: 5.35 µM (inactive)
SK-MEL-28
  GI50: 8.07 µM (inactive)
ACHN
  GI50: 37.5 µM (inactive)
SK-MEL-2
  GI50: 3.15 µM (inactive)
UO-31
  GI50: 56.1 µM (inactive)
HL-60
  GI50: 4.85 µM (inactive)
COLO 205
  GI50: 3.13 µM (inactive)
RXF 393
  GI50: 2.84 µM (inactive)
786-0
  GI50: 8.04 µM (inactive)
MCF7
  GI50: 2.61 µM (inactive)
SF-268
  GI50: 5.52 µM (inactive)
OVCAR-3
  GI50: 2.21 µM (inactive)
UACC-257
  GI50: 7.26 µM (inactive)

## COC(=O)/C=C1\CCCN1CCc1cc2c(cc1CC#N)OCO2
MDA-MB-231
  GI50: 47.9 µM (inactive)
MDA-MB-435
  GI50: 17.3 µM (inactive)
NCI-H226
  GI50: 48.6 µM (inactive)
MOLT-4
  GI50: 34.4 µM (inactive)
BT-549
  GI50: 52.6 µM (inactive)
Malme-3M
  GI50: > 100 µM (inactive)
U-251
  GI50: 39.7 µM (inactive)
SK-OV-3
  GI50: 34.9 µM (inactive)
SK-MEL-28
  GI50: 84.1 µM (inactive)
ACHN
  GI50: > 100 µM (inactive)
SK-MEL-2
  GI50: 38.4 µM (inactive)
UO-31
  GI50: 23.8 µM (inactive)
HL-60
  GI50: 40.7 µM (inactive)
COLO 205
  GI50: 35.2 µM (inactive)
RXF 393
  GI50: 31.7 µM (inactive)
786-0
  GI50: 52.7 µM (inactive)
MCF7
  GI50: 32.9 µM (inactive)
SF-268
  GI50: > 100 µM (inactive)
OVCAR-3
  GI50: 22.6 µM (inactive)
UACC-257
  GI50: 59.4 µM (inactive)

## C=CC[C@]1(C2=NC(C)(C)CO2)c2ccccc2-c2ccccc2[C@H]1C(C)=O
MDA-MB-231
  GI50: 14.2 µM (inactive)
MDA-MB-435
  GI50: 3.64 µM (inactive)
NCI-H226
  GI50: 14 µM (inactive)
MOLT-4
  GI50: 9.27 µM (inactive)
BT-549
  GI50: 16 µM (inactive)
Malme-3M
  GI50: 5.57 µM (inactive)
U-251
  GI50: 8.15 µM (inactive)
SK-OV-3
  GI50: 9.31 µM (inactive)
SK-MEL-28
  GI50: 14.2 µM (inactive)
ACHN
  GI50: 12.5 µM (inactive)
SK-MEL-2
  GI50: 3.92 µM (inactive)
UO-31
  GI50: 14.1 µM (inactive)
HL-60
  GI50: 3.93 µM (inactive)
COLO 205
  GI50: 4.41 µM (inactive)
RXF 393
  GI50: 3.68 µM (inactive)
786-0
  GI50: 9.71 µM (inactive)
MCF7
  GI50: 4.22 µM (inactive)
SF-268
  GI50: 10 µM (inactive)
OVCAR-3
  GI50: 3.13 µM (inactive)
UACC-257
  GI50: 6.05 µM (inactive)

## N#Cc1c(O)c(/N=N/c2ccc(Cl)cc2)c(=O)n2c1[nH]c1ccccc12
MDA-MB-231
  GI50: 29.3 µM (inactive)
MDA-MB-435
  GI50: 35.8 µM (inactive)
NCI-H226
  GI50: 81.8 µM (inactive)
MOLT-4
  GI50: 29.6 µM (inactive)
BT-549
  GI50: 34.6 µM (inactive)
Malme-3M
  GI50: 40.6 µM (inactive)
U-251
  GI50: 37.5 µM (inactive)
SK-OV-3
  GI50: 94 µM (inactive)
SK-MEL-28
  GI50: 45.2 µM (inactive)
ACHN
  GI50: 36.1 µM (inactive)
SK-MEL-2
  GI50: 45.8 µM (inactive)
UO-31
  GI50: 49.9 µM (inactive)
HL-60
  GI50: 55.5 µM (inactive)
COLO 205
  GI50: 52.2 µM (inactive)
RXF 393
  GI50: 53.8 µM (inactive)
786-0
  GI50: 48.6 µM (inactive)
MCF7
  GI50: 43.5 µM (inactive)
SF-268
  GI50: 45 µM (inactive)
OVCAR-3
  GI50: 26.4 µM (inactive)
UACC-257
  GI50: 52.1 µM (inactive)

## COCC(=O)OC1CCn2c1nc1c2C(=O)C(C)=C(NC(C)=O)C1=N (stereo not given)
MDA-MB-231
  GI50: 3.27 µM (inactive)
MDA-MB-435
  GI50: 1.66 µM (inactive)
NCI-H226
  GI50: 18.5 µM (inactive)
MOLT-4
  GI50: 2.34 µM (inactive)
BT-549
  GI50: 0.993 µM (active)
Malme-3M
  GI50: 1.38 µM (inactive)
U-251
  GI50: 5.38 µM (inactive)
SK-OV-3
  GI50: 17.7 µM (inactive)
SK-MEL-28
  GI50: 4.59 µM (inactive)
ACHN
  GI50: 7.71 µM (inactive)
SK-MEL-2
  GI50: 2.15 µM (inactive)
UO-31
  GI50: 11.6 µM (inactive)
HL-60
  GI50: 2.9 µM (inactive)
COLO 205
  GI50: 12.5 µM (inactive)
RXF 393
  GI50: 2.16 µM (inactive)
786-0
  GI50: 3.03 µM (inactive)
MCF7
  GI50: 1.69 µM (inactive)
SF-268
  GI50: 5.19 µM (inactive)
OVCAR-3
  GI50: 2.03 µM (inactive)
UACC-257
  GI50: 2.43 µM (inactive)
